According to patent publication US10413593B2 (priority 2014, dated 2019):

Assays:
[1] = Second study in DIO mice: body weight change percent relative to vehicle (Example 19, FIG. 2); assay type: in vivo, mice (strain C57Bl6/NTac); details: 3 nmol/kg daily, eight days
Procedure: In addition, the peptide of SEQ ID NO: 8 was administered at 15 nmol/kg, while the peptide of SEQ ID NOs: 10 and 11 were administered at 3 nmol/kg. Body weight was measured daily for eight days and body weight change is expressed as percent relative to vehicle (FIG. 2).

[2] = Cumulative food intake in DIO mice (Example 20, FIG. 3); details: 3 nmol/kg, after 8 days of dosing
Text: For the studies in Examples 18, 19, 20, and 21, diet induced obesity (DIO) mice (strain C57Bl6/NTac; 20 weeks on a high fat diet, about 47 g) were divided into groups of eight mice per group and the initial average body weight, food intake and basal glucose of each group were matched before peptide administration. Each group of mice was subcutaneously injected daily with a dose of Co-agonist Peptide or vehicle control for 7 to 10 days. The peptides tested in this study were Co-agonist Peptides 1, 2, 3, 4, 5, and 6 (SEQ ID NOs: 6, 7, 8, 9, 10, and 11, respectively) at the doses that varied from 3 nmol/kg to 25 nmol/kg. Body weight, food intake and basal glucose were measured periodically during treatment.

[3] = Cumulative body weight change in DIO mice, daily s.c. dosing for nine days (Example 18, FIG. 1); assay type: in vivo, mice (strain C57Bl6/NTac); details: 9 nmol/kg s.c. daily, day 9
Procedure: Mice were administered a vehicle control or a dose of a peptide daily for nine days. […] The peptide of SEQ ID NO: 9 was administered at doses of 9 and 25 nmol/kg. Cumulative body weight change (grams) was measured each day of the study except on day 3. Results are shown in FIG. 1 and are expressed as mean±SEM.

Compound: CCCCCCCCCCCCCCCC(=O)N[C@@H](CCC(=O)N[C@@H](CCC(=O)NCCCC[C@H](NC(=O)[C@H](CC(=O)O)NC(=O)[C@H](CO)NC(=O)[C@@H](NC(=O)[C@H](Cc1ccccc1)NC(=O)[C@@H](NC(=O)CNC(=O)[C@H](CCC(N)=O)NC(=O)[C@@H](CO)NC(=O)[C@@H](N)Cc1c[nH]cn1)[C@@H](C)O)[C@@H](C)O)C(=O)N[C@@H](CO)C(=O)N[C@@H](CCCCN)C(=O)N[C@@H](Cc1ccc(O)cc1)C(=O)N[C@@H](CC(C)C)C(=O)N[C@@H](CC(=O)O)C(=O)N[C@@H](C)C(=O)N[C@@H](CCCNC(=N)N)C(=O)N[C@@H](C)C(=O)N[C@@H](C)C(=O)N[C@@H](CCC(N)=O)C(=O)N[C@@H](CC(=O)O)C(=O)N[C@@H](Cc1ccccc1)C(=O)N[C@H](C(=O)N[C@@H](CCC(N)=O)C(=O)N[C@@H](Cc1c[nH]c2ccccc12)C(=O)N[C@@H](CC(C)C)C(=O)N[C@@H](CC(C)C)C(=O)N[C@@H](CC(=O)O)C(=O)N[C@H](C(N)=O)[C@@H](C)O)C(C)C)C(=O)O)C(=O)O [SEQ ID NO: 10]
- weight loss, percent relative to vehicle [1]: approximately 17%
- change in food intake vs vehicle [2]: significant suppression of food intake
- body weight loss [3]: approximately 13 grams
